Laboratory results reported in ChEMBL document CHEMBL6120958, “A Highly Atom-Efficient Prodrug Approach to Generate Synergy between H2S and Nonsteroidal Anti-inflammatory Drugs and Improve Safety” (J Med Chem, 2024).
Active and inactive are the calls of the source. No cut-off for these calls is given here.

Tests used:
[1] = Cardiotoxicity against Sprague-Dawley rat assessed as striated muscle recovery with reduced vacuolation in heart at 14.2 mg/kg, ip administered for 6 days by Hematoxylin-Eosin staining analysis; assay type: toxicity, organism-based; settings: in vivo, 144 h, time 6 day
[2] = Toxicity against C57BL/6J mouse assessed as AST level in serum at 506 umol/kg, ip measured after 24 hrs; assay type: organism-based; settings: in vivo, dose 506 µmol/kg
[3] = Cardiotoxicity against Sprague-Dawley rat assessed as SOD level in heart at 14.2 mg/kg, ip administered for 6 days; assay type: toxicity, organism-based; settings: in vivo, 144 h, time 6 day
[4] = Toxicity against collagen-induced arthritis Wistar rat model assessed as glutathione level in liver at 33.7 umol/kg, po administered for 28 days; assay type: organism-based; settings: in vivo, 672 h, dose 33.7 µmol/kg, time 28 day
Rattus norvegicus [5] = test: Antiinflammatory activity against collagen-induced arthritis Wistar rat model assessed as reduction in IL-1 beta level in serum at 33.7 umol/kg, po administered for 28 days via gavage by ELISA; assay type: functional, organism-based; settings: dose 33.7 µmol/kg, time 28.0 day
[6] = Cardiotoxicity against Sprague-Dawley rat assessed as MDA level in heart at 14.2 mg/kg, ip administered for 6 days; assay type: toxicity, organism-based; settings: in vivo, 144 h, time 6 day
[7] = Stability of the compound in PBS at 500 uM measured for 3 months at pH 7.4 at -20 degC by HPLC analysis; assay type: physicochemical; settings: buffer, pH 7.4, 2190 h
[8] = Cardiotoxicity against Sprague-Dawley rat assessed as increase in Bcl-2 level in heart at 14.2 mg/kg, ip administered for 6 days by immunofluorescence staining analysis; assay type: toxicity, organism-based; settings: in vivo, 144 h, time 6 day
[9] = Toxicity against collagen-induced arthritis Wistar rat model assessed as uric acid level in serum at 33.7 umol/kg, po administered for 28 days; assay type: organism-based; settings: in vivo, 672 h, dose 33.7 µmol/kg, time 28 day
[10] = Toxicity against Sprague-Dawley rat assessed as decrease in crypt proliferation at 10.5 mg/kg, po administered via gavage for 7 days and measured at 2 hrs post-last drug dosage by Ki67 immunohistochemistry; assay type: organism-based; settings: in vivo, 168 h, time 7 day
[11] = Toxicity against collagen-induced arthritis Wistar rat model assessed as increase in body weight at 16.8 umol/kg, po administered for 28 days; assay type: organism-based; settings: in vivo, 672 h, at 16.8 µmol/kg, time 28 day
[12] = Toxicity against C57BL/6J mouse assessed as ALT level in serum at 506 umol/kg, ip measured after 24 hrs; assay type: organism-based; settings: in vivo, dose 506 µmol/kg
[13] = Toxicity against Sprague-Dawley rat assessed as potentially pathogenic bacteria (Clostridiaceae and Peptostreptococcaceae) level at 10.5 mg/kg, po administered via gavage for 7 days and measured at 2 hrs post-last drug dosage by Kruskal-Wallis H test; assay type: organism-based; settings: in vivo, 168 h, time 7 day
[14] = Drug metabolism in Wistar rat assessed as DCF level in blood at 10.5 mg/kg, po administered via gavage measured after 5 mins by LC-MS/MS analysis; assay type: ADME, organism-based; settings: in vivo
[15] = Toxicity against Sprague-Dawley rat assessed as preservation of integrity of jejunal vili without crypt damage and less glandular structure loss in colon at 10.5 mg/kg, po administered via gavage for 7 days and measured at 2 hrs post-last drug dosage by Hematoxylin-Eosin staining based analysis; assay type: organism-based; settings: in vivo, 168 h, time 7 day
[16] = Toxicity against Sprague-Dawley rat assessed as diarrhea at 10.5 mg/kg, po administered via gavage for 7 days; assay type: organism-based; settings: in vivo, 168 h, time 7 day
[17] = Cardiotoxicity against Sprague-Dawley rat assessed as myocardial fibrosis at 14.2 mg/kg, ip administered for 6 days by Masson staining analysis; assay type: toxicity, organism-based; settings: in vivo, 144 h, time 6 day
Rattus norvegicus [18] = test: Antiinflammatory activity against collagen-induced arthritis Wistar rat model assessed as increase in IL-10 level in serum at 33.7 umol/kg, po administered for 28 days via gavage by ELISA; assay type: functional, organism-based; settings: dose 33.7 µmol/kg, time 28.0 day
[19] = Cardiotoxicity against Sprague-Dawley rat assessed as cTnI level in serum at 14.2 mg/kg, ip administered for 6 days (reference value: 1.9 +/-0.2 ng/ml); assay type: toxicity, organism-based; settings: in vivo, 144 h, time 6 day
[20] = Toxicity against collagen-induced arthritis Wistar rat model assessed as AST level in serum at 33.7 umol/kg, po administered for 28 days; assay type: organism-based; settings: in vivo, 672 h, dose 33.7 µmol/kg, time 28 day
[21] = Stability of the compound in rat plasma assessed as half life by LC-MS/MS analysis; assay type: ADME, cell-free
Rattus norvegicus [22] = test: Antiinflammatory activity against collagen-induced arthritis Wistar rat model assessed as reduction in toe swelling at 33.7 umol/kg, po administered for 28 days via gavage; assay type: functional, organism-based; settings: dose 33.7 µmol/kg, time 28.0 day
[23] = Toxicity against collagen-induced arthritis Wistar rat model assessed as creatinine level in serum at 33.7 umol/kg, po administered for 28 days; assay type: organism-based; settings: in vivo, 672 h, dose 33.7 µmol/kg, time 28 day
[24] = Stability in Wistar rat assessed as parent drug level in blood at 10.5 mg/kg, po administered via gavage measured after 5 mins by LC-MS/MS analysis; assay type: ADME, organism-based; settings: in vivo
[25] = Toxicity against collagen-induced arthritis Wistar rat model assessed as decrease in SOD activity in liver at 33.7 umol/kg, po administered for 28 days; assay type: organism-based; settings: in vivo, 672 h, dose 33.7 µmol/kg, time 28 day
[26] = Toxicity against collagen-induced arthritis Wistar rat model assessed as increase in body weight at 33.7 umol/kg, po administered for 28 days; assay type: organism-based; settings: in vivo, 672 h, at 33.7 µmol/kg, time 28 day
[27] = Toxicity against Sprague-Dawley rat assessed as dysbiosis in gut microbiota at 10.5 mg/kg, po administered via gavage for 7 days and measured at 2 hrs post-last drug dosage by 16S rRNA amplicon sequencing based PCA analysis; assay type: organism-based; settings: in vivo, 168 h, time 7 day
[28] = Toxicity against collagen-induced arthritis Wistar rat model assessed as decrease in CAT activity in kidney at 33.7 umol/kg, po administered for 28 days; assay type: organism-based; settings: in vivo, 672 h, dose 33.7 µmol/kg, time 28 day
[29] = Cardiotoxicity against Sprague-Dawley rat assessed as LDH level in serum at 14.2 mg/kg, ip administered for 6 days (reference value: 831.8 +/-23.1 U/L); assay type: toxicity, organism-based; settings: in vivo, 144 h, time 6 day
[30] = Toxicity against collagen-induced arthritis Wistar rat model assessed as gastric ulceration at 16.8 umol/kg, po administered for 28 days; assay type: organism-based; settings: in vivo, 672 h, dose 16.8 µmol/kg, time 28 day
[31] = Toxicity against Sprague-Dawley rat assessed as elevation of beneficial gut probiotics(Prevotellaceae and Erysipelotrichaceae) at 10.5 mg/kg, po administered via gavage for 7 days and measured at 2 hrs post-last drug dosage by Kruskal-Wallis H test; assay type: organism-based; settings: in vivo, 168 h, time 7 day
[32] = Toxicity against Sprague-Dawley rat assessed as apoptosis in intestine at 10.5 mg/kg, po administered via gavage for 7 days and measured at 2 hrs post-last drug dosage by TUNEL immunofluorescence staining; assay type: organism-based; settings: in vivo, 168 h, time 7 day
[33] = Toxicity against Sprague-Dawley rat assessed as valeric acid and caproic acid in feces at 10.5 mg/kg, po administered via gavage for 7 days and measured at 2 hrs post-last drug dosage; assay type: organism-based; settings: in vivo, 168 h, time 7 day
[34] = Oral bioavailability in Wistar rat at 10.5 mg/kg; assay type: ADME, organism-based; settings: in vivo
[35] = biological target: T1, Prostaglandin G/H synthase 1 (Ovis aries, UniProt P05979); test: Inhibition of ovine COX1 assessed as reduction in PGF2alpha production using arachidonic acid as substrate preincubated with enzyme for 10 mins followed by substrate addition and measured after 2 mins by ELISA
T1 sequence (P05979 whole entry): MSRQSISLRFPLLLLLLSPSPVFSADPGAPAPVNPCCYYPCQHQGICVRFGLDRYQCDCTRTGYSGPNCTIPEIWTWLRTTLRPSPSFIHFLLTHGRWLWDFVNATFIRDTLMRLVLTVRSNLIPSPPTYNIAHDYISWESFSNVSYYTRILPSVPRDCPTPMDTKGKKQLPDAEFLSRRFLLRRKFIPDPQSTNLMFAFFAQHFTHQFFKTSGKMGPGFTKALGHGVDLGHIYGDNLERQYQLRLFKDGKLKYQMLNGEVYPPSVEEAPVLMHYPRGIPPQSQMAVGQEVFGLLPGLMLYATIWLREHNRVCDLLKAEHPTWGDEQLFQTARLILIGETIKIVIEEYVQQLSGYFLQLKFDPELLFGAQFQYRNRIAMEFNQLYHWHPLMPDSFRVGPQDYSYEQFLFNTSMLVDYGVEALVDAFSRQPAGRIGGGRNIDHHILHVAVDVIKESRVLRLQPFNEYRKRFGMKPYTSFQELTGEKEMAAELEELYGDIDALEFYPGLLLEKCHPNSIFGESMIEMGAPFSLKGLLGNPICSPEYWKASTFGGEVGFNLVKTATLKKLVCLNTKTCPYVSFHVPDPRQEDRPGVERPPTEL

[36] = Cardiotoxicity against Sprague-Dawley rat assessed as decrease in cleaved caspase-3 level in heart at 14.2 mg/kg, ip administered for 6 days by immunofluorescence staining analysis; assay type: toxicity, organism-based; settings: in vivo, 144 h, time 6 day
[37] = Drug metabolism in Wistar rat assessed as DCF level in blood at 10.5 mg/kg, po administered via gavage measured after 10 mins by LC-MS/MS analysis; assay type: ADME, organism-based; settings: in vivo
[38] = Stability of the compound in PBS at 500 uM measured within 144 hrs at pH 7.4 at 37 degC by HPLC analysis; assay type: physicochemical; settings: buffer, pH 7.4, 144 h
[39] = Toxicity against collagen-induced arthritis Wistar rat model assessed as preserved mucosa integrity without gastrointestinal damage at 33.7 umol/kg, po administered for 28 days by Hematoxylin-Eosin staining based analysis; assay type: organism-based; settings: in vivo, 672 h, dose 33.7 µmol/kg, time 28 day

- Stability [7]: Stable
- Drug metabolism [14]: 942.7 ng/mL
- half-life [21]: 1.45 h
- Stability [24]: 2330 ng/mL
- bioavailability [34]: 80%
- IC50 [35]: 35.9 nM
- Drug metabolism [37]: 9755 ng/mL
- Stability [38]: Stable
SMILES: O=C([S-])Cc1ccccc1Nc1c(Cl)cccc1Cl.[Na+]
- Activity [1]: Non-toxic
- Activity [2]: 66.5 U/L
- Activity [3]: Non-toxic
- Activity [4]: 1.2 µg/mg
- Activity (Rattus norvegicus [5]): Active
- Activity [6]: Non-toxic
- Activity [8]: Non-toxic
- Activity [9]: 123.9 µmol/L
- Activity [10]: Non-toxic
- Activity [11]: 8%
- Activity [12]: 45.9 U/L
- Activity [13]: Non-toxic
- Activity [15]: Non-toxic
- Activity [16]: Non-toxic
- Activity [17]: Non-toxic
- Activity (Rattus norvegicus [18]): Active
- Activity [19]: 2.7 ng/mL
- Activity [20]: 50.2 U/L
- Activity (Rattus norvegicus [22]): Active
- Activity [23]: 313.9 µmol/L
- Activity [25]: Non-toxic
- Activity [26]: 8%
- Activity [27]: Non-toxic
- Activity [28]: Non-toxic
- Activity [29]: 1165 U/L
- Activity [30]: Non-toxic
- Activity [31]: Non-toxic
- Activity [32]: Non-toxic
- Activity [33]: Non-toxic
- Activity [36]: Non-toxic
- Activity [39]: Non-toxic
